Laboratory results taken from US20250270209A1 (INTERLINE THERAPEUTICS, INC., priority 2022, published 2025).

Key:
[1] = target: T1, wild type LRRK2 overexpressed in recombinant HEK-293T cells (Homo sapiens, UniProt Q5S007); test: pS935 LRRK2 Cell Assay (HTRF, phospho-LRRK2 Ser935); format: cell-based; settings: LRRK2 Inhibition, Table 8, 2 hours compound incubation
T1 construct: host or cells: HEK293T (transient transfection with pCMV-LRRK2 WT plasmid)
How it was run: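 Phospho-Ser935 LRRK2 measured by two-antibody HTRF (Eu-cryptate donor, d2 acceptor; 665/615 nm ratio) after overnight detection at 23° C. Before lysis, transiently LRRK2-transfected HEK-293T cells were exposed 2 h at 37° C to a 9-point, 3-fold series from 10 μM, with DMSO at 0.2%.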

LRRK2 wild type enzyme = LRRK2 wild type enzyme (Homo sapiens, UniProt Q5S007); test: Biochemical Assay: LRRK2 TR-FRET (LanthaScreen) kinase assay with LRRKtide substrate; settings: LRRK2 Inhibition, Table 8
How it was run: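 TR-FRET detection (Tb-labelled phospho-LRRKtide antibody, EDTA stop, 30 min) followed a 120 min, 23 °C reaction of 3 nM wild-type human LRRK2 with LRRKtide (400 nM) and ATP (25 μM) in Tris pH 8.0. Compounds: 11-point 3-fold series from 10 μM, 15 min enzyme preincubation.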

T1 sequence (Q5S007 whole entry): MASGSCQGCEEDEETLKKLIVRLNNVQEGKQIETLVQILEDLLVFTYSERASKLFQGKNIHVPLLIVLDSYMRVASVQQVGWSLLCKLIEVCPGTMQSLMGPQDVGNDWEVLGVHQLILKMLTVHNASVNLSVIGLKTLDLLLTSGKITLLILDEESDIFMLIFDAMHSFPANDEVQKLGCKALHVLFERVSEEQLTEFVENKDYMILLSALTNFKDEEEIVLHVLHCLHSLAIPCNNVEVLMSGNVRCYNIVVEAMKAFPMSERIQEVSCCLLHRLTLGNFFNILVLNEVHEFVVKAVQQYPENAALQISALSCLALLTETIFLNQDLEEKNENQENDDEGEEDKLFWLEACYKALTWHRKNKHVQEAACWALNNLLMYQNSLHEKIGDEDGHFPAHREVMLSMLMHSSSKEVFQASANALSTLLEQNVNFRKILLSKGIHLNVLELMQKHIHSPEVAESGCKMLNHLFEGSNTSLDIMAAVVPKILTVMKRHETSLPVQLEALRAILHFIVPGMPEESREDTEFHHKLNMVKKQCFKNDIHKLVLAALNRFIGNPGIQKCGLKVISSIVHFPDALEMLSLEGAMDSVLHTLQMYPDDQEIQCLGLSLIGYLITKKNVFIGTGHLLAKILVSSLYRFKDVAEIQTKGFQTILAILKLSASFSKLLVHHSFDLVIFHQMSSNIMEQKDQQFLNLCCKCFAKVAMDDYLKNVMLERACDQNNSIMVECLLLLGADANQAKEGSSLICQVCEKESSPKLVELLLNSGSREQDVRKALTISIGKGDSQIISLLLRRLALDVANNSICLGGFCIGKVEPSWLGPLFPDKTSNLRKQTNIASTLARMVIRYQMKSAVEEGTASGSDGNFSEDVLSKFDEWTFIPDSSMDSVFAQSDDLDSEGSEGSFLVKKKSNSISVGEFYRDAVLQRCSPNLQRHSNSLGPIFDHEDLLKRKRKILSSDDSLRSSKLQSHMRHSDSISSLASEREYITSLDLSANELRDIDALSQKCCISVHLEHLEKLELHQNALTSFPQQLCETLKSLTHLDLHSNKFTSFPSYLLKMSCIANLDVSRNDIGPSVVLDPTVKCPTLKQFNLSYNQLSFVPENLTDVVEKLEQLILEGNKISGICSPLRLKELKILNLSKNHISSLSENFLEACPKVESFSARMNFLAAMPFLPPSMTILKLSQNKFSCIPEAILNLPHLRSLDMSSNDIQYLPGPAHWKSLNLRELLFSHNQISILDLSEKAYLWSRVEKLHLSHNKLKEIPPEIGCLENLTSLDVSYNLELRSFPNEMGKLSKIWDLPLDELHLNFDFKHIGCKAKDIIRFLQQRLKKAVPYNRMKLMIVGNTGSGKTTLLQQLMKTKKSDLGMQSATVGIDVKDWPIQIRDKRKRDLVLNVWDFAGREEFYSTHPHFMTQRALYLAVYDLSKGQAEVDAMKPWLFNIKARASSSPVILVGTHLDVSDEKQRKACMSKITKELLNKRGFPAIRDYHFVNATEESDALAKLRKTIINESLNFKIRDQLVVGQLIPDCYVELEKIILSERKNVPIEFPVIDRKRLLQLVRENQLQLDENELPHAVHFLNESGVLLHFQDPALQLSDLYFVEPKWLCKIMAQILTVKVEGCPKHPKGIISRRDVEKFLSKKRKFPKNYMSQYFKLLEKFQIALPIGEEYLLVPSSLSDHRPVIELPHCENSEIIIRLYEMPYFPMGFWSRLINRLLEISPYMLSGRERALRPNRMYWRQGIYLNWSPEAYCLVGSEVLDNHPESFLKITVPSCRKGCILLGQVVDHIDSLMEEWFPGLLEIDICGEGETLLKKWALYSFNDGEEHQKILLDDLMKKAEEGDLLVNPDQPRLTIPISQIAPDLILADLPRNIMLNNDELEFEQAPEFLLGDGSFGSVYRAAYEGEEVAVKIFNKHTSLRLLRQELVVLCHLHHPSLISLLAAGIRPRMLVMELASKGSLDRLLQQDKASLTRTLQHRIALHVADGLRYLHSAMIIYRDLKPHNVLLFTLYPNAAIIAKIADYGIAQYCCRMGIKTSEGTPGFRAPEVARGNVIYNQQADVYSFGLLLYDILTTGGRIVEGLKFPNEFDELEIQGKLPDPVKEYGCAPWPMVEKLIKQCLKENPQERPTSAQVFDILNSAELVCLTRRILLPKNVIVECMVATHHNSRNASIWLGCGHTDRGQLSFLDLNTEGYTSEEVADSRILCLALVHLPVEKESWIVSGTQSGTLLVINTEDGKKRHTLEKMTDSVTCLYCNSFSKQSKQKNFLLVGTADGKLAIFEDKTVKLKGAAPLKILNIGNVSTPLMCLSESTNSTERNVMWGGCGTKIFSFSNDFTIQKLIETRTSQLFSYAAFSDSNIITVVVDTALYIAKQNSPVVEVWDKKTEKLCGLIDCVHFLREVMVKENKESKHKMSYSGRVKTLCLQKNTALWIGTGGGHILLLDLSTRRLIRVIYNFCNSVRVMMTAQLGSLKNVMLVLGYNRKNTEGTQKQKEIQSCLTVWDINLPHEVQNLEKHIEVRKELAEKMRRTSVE
Sequence of LRRK2 wild type enzyme (Q5S007 whole entry): as above

Structure (SMILES): C[C@@H]1C[C@H](n2c(C3CCN(S(=O)(=O)C4CC4)CC3)nc3cnc4ccc(C#N)cc4c32)CCO1 [Compound 120, 2-[1-(cyclopropanesulfonyl)piperidin-4-yl]-1-[(2R,4R)-2-methyloxan-4-yl]-1H-imidazo[4,5-c]quinoline-8-carbonitrile]
- IC50 [1]: 268 nM
- IC50 (LRRK2 wild type enzyme): 1.7 nM

Structure (SMILES): C[C@@H]1C[C@H](n2c(C3CCN(S(=O)(=O)c4cnn(C)c4)CC3)nc3cnc4ccc(C#N)cc4c32)CCO1 [Compound 121, 2-{1-[(1-methyl-1H-pyrazol-4-yl)sulfonyl]piperidin-4-yl}-1-[(2R,4R)-2-methyloxan-4-yl]-1H-imidazo[4,5-c]quinoline-8-carbonitrile]
- IC50 [1]: 493 nM
- IC50 (LRRK2 wild type enzyme): 1.81 nM

Structure (SMILES): C[C@@H]1C[C@H](n2c(C3CCN(S(C)(=O)=O)CC3)nc3cnc4ccc(C#N)cc4c32)CCO1 [Compound 122, 2-(1-methanesulfonylpiperidin-4-yl)-1-[(2R,4R)-2-methyloxan-4-yl]-1H-imidazo[4,5-c]quinoline-8-carbonitrile]
- IC50 [1]: 546 nM
- IC50 (LRRK2 wild type enzyme): 2.99 nM

Structure (SMILES): C[C@@H]1C[C@H](n2c(C3CC(=O)N(c4cnn(CCO)c4)C3)nc3cnc4ccc(C#N)cc4c32)CCO1 (stereo partly drawn) [Compound 123, 2-{1-[1-(2-hydroxyethyl)-1H-pyrazol-4-yl]-5-oxopyrrolidin-3-yl}-1-[(2R,4R)-2-methyloxan-4-yl]-1H-imidazo[4,5-c]quinoline-8-carbonitrile]
- IC50 [1]: 4050 nM
- IC50 (LRRK2 wild type enzyme): 1.41 nM

Structure (SMILES): C[C@@H]1C[C@H](n2c([C@H]3CN(c4cnn(C)c4)C(=O)O3)nc3cnc4ccc(C#N)cc4c32)CCO1 [Compound 124, 2-[(5R)-3-(1-methyl-1H-pyrazol-4-yl)-2-oxo-1,3-oxazolidin-5-yl]-1-[(2R,4R)-2-methyloxan-4-yl]-1H-imidazo[4,5-c]quinoline-8-carbonitrile]
- IC50 [1]: 50.9 nM
- IC50 (LRRK2 wild type enzyme): 0.706 nM

Structure (SMILES): C[C@@H]1C[C@H](n2c(CC(=O)NC3COC3)nc3cnc4ccc(Cl)cc4c32)CCO1 [Compound 141, 2-{8-chloro-1-[(2R,4R)-2-methyloxan-4-yl]-1H-imidazo[4,5-c]quinolin-2-yl}-N-(oxetan-3-yl)acetamide]
- IC50 [1]: 18.7 nM
- IC50 (LRRK2 wild type enzyme): 0.53 nM

Structure (SMILES): C[C@@H]1C[C@H](n2c(CC(=O)NCc3ncccn3)nc3cnc4ccc(Cl)cc4c32)CCO1 [Compound 142, 2-{8-chloro-1-[(2R,4R)-2-methyloxan-4-yl]-1H-imidazo[4,5-c]quinolin-2-yl}-N-[(pyrimidin-2-yl)methyl]acetamide]
- IC50 [1]: 17.8 nM
- IC50 (LRRK2 wild type enzyme): 0.565 nM

Structure (SMILES): C[C@@H]1C[C@H](n2c(CC(=O)NCC3CCCCO3)nc3cnc4ccc(C#N)cc4c32)CCO1 (stereo partly drawn) [Compound 143, 2-{8-cyano-1-[(2R,4R)-2-methyloxan-4-yl]-1H-imidazo[4,5-c]quinolin-2-yl}-N-[(oxan-2-yl)methyl]acetamide]
- IC50 [1]: 11.5 nM
- IC50 (LRRK2 wild type enzyme): 0.534 nM

Structure (SMILES): C[C@@H]1C[C@H](n2c(CC(=O)N[C@@H]3CCOC3)nc3cnc4ccc(Cl)cc4c32)CCO1 [Compound 145, 2-{8-chloro-1-[(2R,4R)-2-methyloxan-4-yl]-1H-imidazo[4,5-c]quinolin-2-yl}-N-[(3R)-oxolan-3-yl]acetamide]
- IC50 [1]: 13.5 nM
- IC50 (LRRK2 wild type enzyme): 0.616 nM

Structure (SMILES): C[C@@H]1C[C@H](n2c(CC(=O)NCc3cccc(F)n3)nc3cnc4ccc(C#N)cc4c32)CCO1 [Compound 146, 2-{8-cyano-1-[(2R,4R)-2-methyloxan-4-yl]-1H-imidazo[4,5-c]quinolin-2-yl}-N-[(6-fluoropyridin-2-yl)methyl]acetamide]
- IC50 [1]: 4.79 nM
- IC50 (LRRK2 wild type enzyme): 0.313 nM

Structure (SMILES): C[C@@H]1C[C@H](n2c(CC(=O)N[C@H]3CCOC3)nc3cnc4ccc(Cl)cc4c32)CCO1 [Compound 147, 2-{8-chloro-1-[(2R,4R)-2-methyloxan-4-yl]-1H-imidazo[4,5-c]quinolin-2-yl}-N-[(3S)-oxolan-3-yl]acetamide]
- IC50 [1]: 10 nM
- IC50 (LRRK2 wild type enzyme): 0.386 nM

Structure (SMILES): C[C@@H]1C[C@H](n2c(CC(=O)NCc3cccnn3)nc3cnc4ccc(Cl)cc4c32)CCO1 [Compound 148, 2-{8-chloro-1-[(2R,4R)-2-methyloxan-4-yl]-1H-imidazo[4,5-c]quinolin-2-yl}-N-[(pyridazin-3-yl)methyl]acetamide]
- IC50 [1]: 4.5 nM
- IC50 (LRRK2 wild type enzyme): 0.376 nM

Structure (SMILES): C[C@@H]1C[C@H](n2c(CC(=O)NCC3CCO3)nc3cnc4ccc(C#N)cc4c32)CCO1 (stereo partly drawn) [Compound 149, 2-{8-cyano-1-[(2R,4R)-2-methyloxan-4-yl]-1H-imidazo[4,5-c]quinolin-2-yl}-N-[(oxetan-2-yl)methyl]acetamide]
- IC50 [1]: 74.3 nM
- IC50 (LRRK2 wild type enzyme): 0.715 nM

Structure (SMILES): C[C@@H]1C[C@H](n2c(CC(=O)NCc3cnccn3)nc3cnc4ccc(Cl)cc4c32)CCO1 [Compound 150, 2-{8-chloro-1-[(2R,4R)-2-methyloxan-4-yl]-1H-imidazo[4,5-c]quinolin-2-yl}-N-[(pyrazin-2-yl)methyl]acetamide]
- IC50 [1]: 7.19 nM
- IC50 (LRRK2 wild type enzyme): 0.47 nM

Structure (SMILES): C[C@@H]1C[C@H](n2c(CC(=O)NC3CCc4cccnc43)nc3cnc4ccc(C#N)cc4c32)CCO1 (stereo partly drawn) [Compound 151, 2-{8-cyano-1-[(2R,4R)-2-methyloxan-4-yl]-1H-imidazo[4,5-c]quinolin-2-yl}-N-{5H,6H,7H-cyclopenta[b]pyridin-7-yl}acetamide]
- IC50 [1]: 23.3 nM
- IC50 (LRRK2 wild type enzyme): 0.55 nM

Structure (SMILES): Cc1cccc(CNC(=O)Cc2nc3cnc4ccc(C#N)cc4c3n2[C@@H]2CCO[C@H](C)C2)n1 [Compound 152, 2-{8-cyano-1-[(2R,4R)-2-methyloxan-4-yl]-1H-imidazo[4,5-c]quinolin-2-yl}-N-[(6-methylpyridin-2-yl)methyl]acetamide]
- IC50 [1]: 3.4 nM
- IC50 (LRRK2 wild type enzyme): 0.318 nM

Structure (SMILES): C[C@@H]1C[C@H](n2c(CC(=O)NC[C@H]3CCCO3)nc3cnc4ccc(C#N)cc4c32)CCO1 [Compound 153, 2-{8-cyano-1-[(2R,4R)-2-methyloxan-4-yl]-1H-imidazo[4,5-c]quinolin-2-yl}-N-{[(2R)-oxolan-2-yl]methyl} acetamide]
- IC50 [1]: 21.3 nM
- IC50 (LRRK2 wild type enzyme): 0.514 nM

Structure (SMILES): C[C@@H]1C[C@H](n2c(CC(=O)NC[C@@H]3CCCO3)nc3cnc4ccc(C#N)cc4c32)CCO1 [Compound 154, 2-{8-cyano-1-[(2R,4R)-2-methyloxan-4-yl]-1H-imidazo[4,5-c]quinolin-2-yl}-N-{[(2S)-oxolan-2-yl]methyl}acetamide]
- IC50 [1]: 39.2 nM
- IC50 (LRRK2 wild type enzyme): 0.674 nM

Structure (SMILES): C[C@@H]1C[C@H](n2c(CC(=O)Nc3ccccn3)nc3cnc4ccc(C#N)cc4c32)CCO1 [Compound 155, 2-{8-cyano-1-[(2R,4R)-2-methyloxan-4-yl]-1H-imidazo[4,5-c]quinolin-2-yl}-N-(pyridin-2-yl)acetamide]
- IC50 [1]: 2.87 nM
- IC50 (LRRK2 wild type enzyme): 0.441 nM

Structure (SMILES): Cc1cc(NC(=O)Cc2nc3cnc4ccc(C#N)cc4c3n2[C@@H]2CCO[C@H](C)C2)no1 [Compound 156, 2-{8-cyano-1-[(2R,4R)-2-methyloxan-4-yl]-1H-imidazo[4,5-c]quinolin-2-yl}-N-(5-methyl-1,2-oxazol-3-yl)acetamide]
- IC50 [1]: 6.83 nM
- IC50 (LRRK2 wild type enzyme): 0.529 nM

Structure (SMILES): C[C@@H]1C[C@H](n2c(CC(=O)NCc3ccn(C)n3)nc3cnc4ccc(C#N)cc4c32)CCO1 [Compound 157, 2-{8-cyano-1-[(2R,4R)-2-methyloxan-4-yl]-1H-imidazo[4,5-c]quinolin-2-yl}-N-[(1-methyl-1H-pyrazol-3-yl)methyl]acetamide]
- IC50 [1]: 25.7 nM
- IC50 (LRRK2 wild type enzyme): 0.505 nM

Structure (SMILES): C[C@@H]1C[C@H](n2c(CC(=O)Nc3cnn(C)c3CO)nc3cnc4ccc(C#N)cc4c32)CCO1 [Compound 158, 2-{8-cyano-1-[(2R,4R)-2-methyloxan-4-yl]-1H-imidazo[4,5-c]quinolin-2-yl}-N-[5-(hydroxymethyl)-1-methyl-1H-pyrazol-4-yl]acetamide]
- IC50 [1]: 272 nM
- IC50 (LRRK2 wild type enzyme): 0.454 nM

Structure (SMILES): C[C@@H]1C[C@H](n2c(CC(=O)NCC3CC3)nc3cnc4ccc(C5CC5)cc4c32)CCO1 [Compound 159, 2-{8-cyclopropyl-1-[(2R,4R)-2-methyloxan-4-yl]-1H-imidazo[4,5-c]quinolin-2-yl}-N-(cyclopropylmethyl)acetamide]
- IC50 [1]: 94.1 nM
- IC50 (LRRK2 wild type enzyme): 1.65 nM

Structure (SMILES): COc1ccc2ncc3nc(CC(=O)NC4CC4)n([C@@H]4CCO[C@H](C)C4)c3c2c1 [Compound 160, N-cyclopropyl-2-{8-methoxy-1-[(2R,4R)-2-methyloxan-4-yl]-1H-imidazo[4,5-c]quinolin-2-yl}acetamide]
- IC50 [1]: 332 nM
- IC50 (LRRK2 wild type enzyme): 2.82 nM

Structure (SMILES): C[C@@H]1C[C@H](n2c(CC(=O)NCc3cc(C4CC4)on3)nc3cnc4ccc(C#N)cc4c32)CCO1 [Compound 161, 2-{8-cyano-1-[(2R,4R)-2-methyloxan-4-yl]-1H-imidazo[4,5-c]quinolin-2-yl}-N-[(5-cyclopropyl-1,2-oxazol-3-yl)methyl]acetamide]
- IC50 [1]: 4.38 nM
- IC50 (LRRK2 wild type enzyme): 0.356 nM

Structure (SMILES): C[C@@H]1C[C@H](n2c(CC(=O)N[C@H]3C[C@@H](OCc4ccccn4)C3)nc3cnc4ccc(C#N)cc4c32)CCO1 [Compound 162, 2-{8-cyano-1-[(2R,4R)-2-methyloxan-4-yl]-1H-imidazo[4,5-c]quinolin-2-yl}-N-[(1rs,3rs)-3-[(pyridin-2-yl)methoxy]cyclobutyl]acetamide]
- IC50 [1]: 55.2 nM
- IC50 (LRRK2 wild type enzyme): 0.485 nM

Structure (SMILES): C[C@@H]1C[C@H](n2c(CC(=O)NCCO)nc3cnc4ccc(Cl)cc4c32)CCO1 [Compound 163, 2-{8-chloro-1-[(2R,4R)-2-methyloxan-4-yl]-1H-imidazo[4,5-c]quinolin-2-yl}-N-(2-hydroxyethyl)acetamide]
- IC50 [1]: 43.8 nM
- IC50 (LRRK2 wild type enzyme): 0.676 nM

Structure (SMILES): COCCNC(=O)Cc1nc2cnc3ccc(Cl)cc3c2n1[C@@H]1CCO[C@H](C)C1 [Compound 164, 2-{8-chloro-1-[(2R,4R)-2-methyloxan-4-yl]-1H-imidazo[4,5-c]quinolin-2-yl}-N-(2-methoxyethyl)acetamide]
- IC50 [1]: 15.2 nM
- IC50 (LRRK2 wild type enzyme): 0.369 nM
